Results taken from paper PMC9117288, “Origins of glycan selectivity in streptococcal Siglec-like adhesins suggest mechanisms of receptor adaptation” (Nature Communications, 2022).
pEC50: −log10 of the molar value. ≈ marks a conversion by molar mass, not a printed value. Where two headings read alike, the source gives them in different places.

Columns and labels:
SLBRUB10712 = experiment: ELISA, immobilized GST-SLBR; parameters: species or system Streptococcus gordonii; conditions: labelled compound (biotinylated glycan); 500 nM immobilized GST-SLBR
SLBRSK678 = experiment: ELISA, immobilized GST-SLBR; parameters: species or system Streptococcus sanguinis; conditions: labelled compound (biotinylated glycan); 500 nM immobilized GST-SLBR
SLBRHsa [1] = target: T1, SLBRHsa (Streptococcus gordonii, UniProt A8AWU7); assay type: binding; parameters: gene hsa; conditions: labelled compound (biotinylated glycan); 500 nM immobilized GST-SLBR
SLBRGspB [2] = target: T2, SLBRGspB (Streptococcus gordonii, UniProt Q939N5); parameters: ELISA, binding of biotinylated glycans to immobilized GST-SLBR (500 nM), absorbance at 450 nm; conditions: biotinylated glycan, binder
T2 construct: gene gspB

SLBRHsa [3] = target: T1, SLBRHsa; parameters: gene hsa; ELISA: GST fusion (pGEX-3X); crystals: His6-MBP tag cleaved with thrombin; E. coli; conditions: binder
SLBRGspB [4] = target: T2, SLBRGspB; experiment: ELISA, immobilized GST-SLBR; assay type: binding; conditions: labelled compound (biotinylated glycan)

T1 sequence (A8AWU7 220-453): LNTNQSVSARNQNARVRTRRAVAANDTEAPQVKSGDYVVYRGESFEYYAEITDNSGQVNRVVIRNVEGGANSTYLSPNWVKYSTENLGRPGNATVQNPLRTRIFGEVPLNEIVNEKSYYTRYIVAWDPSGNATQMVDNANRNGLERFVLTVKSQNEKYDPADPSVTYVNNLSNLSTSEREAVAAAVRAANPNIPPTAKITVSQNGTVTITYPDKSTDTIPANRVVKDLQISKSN
T2 sequence (Q939N5 245-604): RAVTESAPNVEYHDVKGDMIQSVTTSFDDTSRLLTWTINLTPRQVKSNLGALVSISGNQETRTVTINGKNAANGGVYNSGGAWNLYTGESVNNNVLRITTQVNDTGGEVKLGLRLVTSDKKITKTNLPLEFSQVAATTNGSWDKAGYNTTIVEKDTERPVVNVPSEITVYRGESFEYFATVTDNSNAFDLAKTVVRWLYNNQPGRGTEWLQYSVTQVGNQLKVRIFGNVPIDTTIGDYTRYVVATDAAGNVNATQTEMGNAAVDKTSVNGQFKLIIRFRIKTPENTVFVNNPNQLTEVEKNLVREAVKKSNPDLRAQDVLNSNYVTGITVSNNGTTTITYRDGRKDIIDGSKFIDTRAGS

`CC(=O)N[C@H]1[C@H]([C@H](O)[C@H](O)CO)O[C@@](O[C@H]2[C@@H](O)[C@@H](CO)O[C@@H](O[C@H]3[C@H](O)[C@@H](NC(C)=O)C(O)O[C@@H]3CO)[C@@H]2O)(C(=O)O)C[C@@H]1O` (stereo partly shown) [3’-sialyl-N-acetyllactosamine] showed an EC50 (SLBRUB10712) of 0.13 ± 0.19 µg/mL (≈ 0.193 µM), an EC50 (SLBRSK678) of 0.90 ± 0.51 µg/mL (≈ 1.33 µM) and a pEC50 (SLBRHsa [1]) of 5.62. It also gave a pEC50 (SLBRGspB [2]; read-out: 3'sLn) of less than 5.13.

With `CC(=O)N[C@H]1[C@H]([C@H](O)[C@H](O)CO)O[C@@](O[C@H]2[C@@H](O)[C@@H](CO)O[C@@H](O[C@H]3[C@H](O)[C@@H](CO)OC(O)[C@@H]3NC(C)=O)[C@@H]2O)(C(=O)O)C[C@@H]1O` (stereo partly shown) [sialyl Lewis^C] the pEC50 (SLBRHsa [1]) was 6.00 and the pEC50 (SLBRGspB [2]; read-out: sLe^C) was less than 5.13.

Work on `CC(=O)N[C@H]1[C@H]([C@H](O)[C@H](O)CO)O[C@@](O[C@H]2[C@@H](O)[C@@H](CO)O[C@@H](O[C@@H]([C@H](O[C@@H]3O[C@@H](C)[C@@H](O)[C@@H](O)[C@@H]3O)[C@H](C=O)NC(C)=O)[C@H](O)CO)[C@@H]2O)(C(=O)O)C[C@@H]1O` [sLe^X, sialyl Lewis X] yielded a pEC50 (SLBRHsa [3]; read-out: sLe^X) of less than 5.22.

For `CC(=O)N[C@H]1[C@H]([C@H](O)[C@H](O)CO)O[C@@](O[C@H]2[C@@H](O)[C@@H](CO)O[C@@H](O[C@H]3[C@H](O[C@@H]4O[C@@H](C)[C@@H](O)[C@@H](O)[C@@H]4O)[C@@H](NC(C)=O)C(O)O[C@@H]3COS(=O)(=O)O)[C@@H]2O)(C(=O)O)C[C@@H]1O` (stereo partly shown) [6-O-sulfo-sialyl Lewis X], the EC50 (SLBRUB10712) was 0.14 ± 0.10 µg/mL (≈ 0.155 µM), the EC50 (SLBRSK678) was 0.63 ± 0.36 µg/mL (≈ 0.699 µM) and the pEC50 (SLBRHsa [3]; read-out: 6S-sLe^X) was less than 5.26.

For `CC(=O)N[C@H]1[C@H]([C@H](O)[C@H](O)CO)O[C@@](O[C@H]2[C@@H](O)[C@@H](CO)O[C@@H](O[C@H]3[C@@H](O)[C@@H](CO)OC(O)[C@@H]3NC(C)=O)[C@@H]2O)(C(=O)O)C[C@@H]1O` (stereo partly shown) [sialyl-T antigen], the “ELISA, immobilized GST-SLBR” value (SLBRGspB [4]) was “recapitulated here by ELISA showing concentration-dependent binding”, the pEC50 (SLBRHsa [1]) was 6.75 and the pEC50 (SLBRGspB [2]; read-out: sTa) was 6.93.
